# Laboratory results published in DBAASP.
# Tests used:
# [1] = test system: Staphylococcus aureus ATCC 25923; test: ≥ marks a high value that may be exact or a test limit, other limits are often not marked, values filed in µg/mL are converted to µM
# [2] = test system: Escherichia coli ATCC 25922; test: as above
Structure (SMILES),MIC [1] [µM],MIC [2] [µM]
CC[C@H](C)[C@H](NC(=O)[C@H](CCCN=C(N)N)NC(=O)[C@H](CCCCN)NC(=O)[C@H](CC(C)C)NC(=O)[C@H](CC(C)C)NC(=O)[C@@H](N)CCCCN)C(=O)N[C@@H](CCCCN)C(=O)N[C@@H](CCCCN)C(=O)N[C@@H](CC(C)C)C(=O)N[C@@H](CC(C)C)C(N)=O [KLLKRIKKLL],22.4,29.5
NC(=O)[C@H](CCCN=C(N)N)NC(=O)[C@H](Cc1c[nH]c2ccccc12)NC(=O)[C@H](Cc1c[nH]c2ccccc12)NC(=O)[C@@H](N)CCCN=C(N)N [RWWR],142,> 285
CC[C@H](C)[C@H](NC(=O)[C@H](CCCN=C(N)N)NC(=O)[C@H](CCCCN)NC(=O)[C@H](CC(C)C)NC(=O)[C@H](CC(C)C)NC(=O)CN)C(=O)N[C@@H](CCCCN)C(=O)N[C@@H](Cc1c[nH]c2ccccc12)C(=O)N[C@@H](CC(C)C)C(=O)N[C@@H](CC(C)C)C(N)=O [GLLKRIKWLL],3.23,1.61
CC[C@H](C)[C@H](NC(=O)[C@H](CCCCN)NC(=O)[C@H](CC(C)C)NC(=O)[C@H](CC(C)C)NC(=O)CN)C(=O)N[C@H](C(=O)N[C@@H](CCCCN)C(=O)N[C@H](C(=O)N[C@@H](CC(C)C)C(=O)N[C@@H](CC(C)C)C(N)=O)[C@@H](C)O)[C@@H](C)CC [GLLKIIKTLL],1.8,1.8
CSCC[C@H](NC(=O)[C@H](Cc1c[nH]c2ccccc12)NC(=O)[C@H](CC(C)C)NC(=O)[C@H](C)N)C(=O)N[C@H](C(=O)N[C@@H](CC(C)C)C(=O)N[C@@H](CC(C)C)C(=O)N[C@@H](CCCCN)C(=O)N[C@@H](CCCCN)C(=O)N[C@H](C(=O)N[C@@H](CC(C)C)C(=O)N[C@@H](CCCCN)C(=O)N[C@@H](C)C(N)=O)C(C)C)[C@@H](C)O [ALWMTLLKKVLKA],6,25
CC[C@H](C)[C@H](NC(=O)[C@H](CCCN=C(N)N)NC(=O)[C@H](CCCCN)NC(=O)[C@H](CC(C)C)NC(=O)[C@H](CC(C)C)NC(=O)CN)C(=O)N[C@@H](CCCCN)C(=O)N[C@H](C(=O)N[C@@H](CC(C)C)C(=O)N[C@@H](CC(C)C)C(N)=O)C(C)C [GLLKRIKVLL],19.1,19.1
CC[C@H](C)[C@H](NC(=O)[C@H](Cc1ccccc1)NC(=O)CN)C(=O)N[C@@H](CO)C(=O)N[C@H](C(=O)N[C@H](C(=O)N[C@@H](CCCCN)C(=O)N[C@@H](CC(N)=O)C(=O)N[C@@H](CC(C)C)C(=O)N[C@@H](C)C(=O)N[C@H](C(=O)N[C@@H](CC(N)=O)C(=O)N[C@H](C(=O)N[C@@H](C)C(=O)NCC(=O)N[C@H](C(=O)N[C@H](C(=O)N[C@H](C(=O)N[C@@H](CC(=O)O)C(=O)N[C@H](C(=O)N[C@H](C(=O)N[C@@H](CCCCN)C(=O)N[C@H]1CSSC[C@@H](C(=O)O)NC(=O)CNC(=O)CNC(=O)[C@H]([C@@H](C)O)NC(=O)[C@H](C(C)C)NC(=O)[C@H](CCCCN)NC1=O)[C@@H](C)CC)[C@@H](C)O)[C@@H](C)CC)C(C)C)[C@@H](C)O)C(C)C)[C@@H](C)O)C(C)C)[C@@H](C)O [GFISTVKNLATNVAGTVIDTIKCKVTGGC],,110
CC(C)[C@@H]1NC(=O)CNC(=O)[C@H](CCCN=C(N)N)NC(=O)[C@H](CCCN=C(N)N)NC(=O)[C@@H]2CSSC[C@H](NC1=O)C(=O)N[C@@H](CCCN=C(N)N)C(=O)N[C@H]1CSSC[C@H](NC(=O)[C@H](CCCN=C(N)N)NC(=O)[C@@H](NC(=O)[C@@H](NC(=O)CN)C(C)C)CSSC[C@@H](C(=O)N[C@@H](CCCN=C(N)N)C(=O)N[C@@H](CCCN=C(N)N)C(=O)O)NC(=O)[C@H](C(C)C)NC1=O)C(=O)N[C@@H](C(C)C)C(=O)N2 [GVCRCVCRRGVCRCVCRR],> 32,32
NC(=O)[C@H](Cc1c[nH]c2ccccc12)NC(=O)[C@H](CCCN=C(N)N)NC(=O)[C@H](CCCN=C(N)N)NC(=O)[C@H](CCCN=C(N)N)NC(=O)[C@H](Cc1c[nH]c2ccccc12)NC(=O)[C@@H](N)Cc1c[nH]c2ccccc12 [WWRRRW],9.57,23.9
CC[C@H](C)[C@H](NC(=O)CN)C(=O)N[C@@H](CCSC)C(=O)N[C@@H](CC(=O)O)C(=O)N[C@H](C(=O)N[C@H](C(=O)N[C@@H](CCCCN)C(=O)N[C@@H](CC(N)=O)C(=O)N[C@@H](C)C(=O)N[C@@H](C)C(=O)N[C@@H](CCCCN)C(=O)N[C@@H](CC(=O)O)C(=O)N[C@@H](CC(C)C)C(=O)N[C@@H](C)C(=O)NCC(=O)N[C@@H](CCC(N)=O)C(=O)N[C@@H](CC(C)C)C(=O)N[C@@H](CC(C)C)C(=O)N[C@@H](CC(=O)O)C(=O)N[C@@H](CCCCN)C(=O)N[C@@H](CC(C)C)C(=O)N[C@@H](CCCCN)C(=O)N[C@H]1CSSC[C@@H](C(=O)O)NC(=O)CNC(=O)[C@H]([C@@H](C)O)NC(=O)[C@H]([C@@H](C)CC)NC(=O)[C@H](CCCN=C(N)N)NC1=O)C(C)C)[C@@H](C)O [GIMDTVKNAAKDLAGQLLDKLKCRITGC],,3
CC(C)C[C@H](NC(=O)[C@H](CCC(N)=O)NC(=O)[C@H](CCCCN)NC(=O)[C@H](CCCN=C(N)N)NC(=O)[C@@H]1CCCN1C(=O)[C@H](C)N)C(=O)N[C@@H](CCCCN)C(=O)N[C@@H](Cc1c[nH]c2ccccc12)C(=O)O [APRKQLKW],,7.8
CC[C@H](C)[C@H](NC(=O)[C@H](CCC(=O)O)NC(=O)[C@H](C)NC(=O)[C@@H](NC(=O)[C@H](CCCCN)NC(=O)[C@H](CCCCN)NC(=O)CN)[C@@H](C)O)C(=O)N[C@@H](CCC(=O)O)C(=O)N[C@@H](CCCCN)C(=O)O [GKKTAEIEK],1250,2490
CC(C)C[C@H](NC(=O)[C@H](CC(C)C)NC(=O)[C@H](CC(C)C)NC(=O)[C@@H]1CCCN1C(=O)[C@H](CC(C)C)NC(=O)[C@@H](N)Cc1ccccc1)C(=O)N[C@@H](C)C(=O)NCC(=O)N[C@@H](CC(C)C)C(=O)N1CCC[C@H]1C(=O)N[C@@H](CCCCN)C(=O)N[C@@H](CC(C)C)C(=O)N[C@@H](CC(C)C)C(=O)N[C@H]1CSSC[C@@H](C(=O)O)NC(=O)[C@H](CCCCN)NC(=O)[C@H](CCCCN)NC(=O)[C@H](Cc2ccccc2)NC(=O)[C@H](Cc2ccccc2)NC(=O)[C@H](CC(C)C)NC1=O [FLPLLLAGLPKLLCLFFKKC],15,15
CC[C@H](C)[C@H](NC(=O)[C@H](CCCN=C(N)N)NC(=O)[C@H](CCCCN)NC(=O)[C@H](CCSC)NC(=O)[C@H](CC(C)C)NC(=O)CN)C(=O)N[C@@H](CCCCN)C(=O)N[C@H](C(=O)N[C@@H](CCSC)C(=O)N[C@@H](CC(C)C)C(N)=O)[C@@H](C)O [GLMKRIKTML],,> 200
CC(C)C[C@H](NC(=O)[C@H](Cc1ccccc1)NC(=O)[C@@H]1CCCN1C(=O)[C@H](Cc1c[nH]c2ccccc12)NC(=O)[C@H](Cc1c[nH]c2ccccc12)NC(=O)[C@H](Cc1ccc(O)cc1)NC(=O)[C@@H]1CCCN1C(=O)[C@H](Cc1ccccc1)NC(=O)[C@H](CCCN=C(N)N)NC(=O)[C@H](CCCN=C(N)N)NC(=O)[C@@H](N)C(C)C)C(=O)N[C@@H](CCCN=C(N)N)C(=O)N[C@@H](CCCN=C(N)N)C(N)=O [VRRFPYWWPFLRR],,16
